Laboratory results reported in PubChem BioAssay AID1963838 (Molecular Pharmacology Branch, DTP, NCI, 2024).

Tested on: 855422-203-R-J1-PDC complex spheroid viability
Assay: Anticancer human tumor 855422-203-R-J1-PDC patient-derived bladder carcinoma cell line growth inhibition [POLQ]
Details: for IC50: curve of first compound; for viability, T/C: stronger effect = lower value
Summary of the method: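 Patient-derived tumour cells were co-cultured with HUVEC and mesenchymal stem cells as multicellular spheroids at 37 °C. They were treated with POLQ inhibitors (novobiocin, ART-558, RP6685) alone or combined with other agents. Top concentrations were at or near clinical Cmax (otherwise 10 microM; SN-38 at 1 microM), decreasing in half-log steps.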

[1] = second compound 0.0316 µM, first compound 0.0316 µM
[2] = second compound 0.0316 µM, first compound 0.1 µM
[3] = second compound 0.0316 µM, first compound 0.316 µM
[4] = second compound 0.0316 µM, first compound 1 µM
[5] = second compound 0.0316 µM, first compound 3.16 µM
[6] = second compound 0.0316 µM, first compound 10 µM
[7] = second compound 0.1 µM, first compound 0.0316 µM
[8] = second compound 0.1 µM, first compound 0.1 µM
[9] = second compound 0.1 µM, first compound 0.316 µM
[10] = second compound 0.1 µM, first compound 1 µM
[11] = second compound 0.1 µM, first compound 3.16 µM
[12] = second compound 0.1 µM, first compound 10 µM
[13] = second compound 0.316 µM, first compound 0.0316 µM
[14] = second compound 0.316 µM, first compound 0.1 µM
[15] = second compound 0.316 µM, first compound 0.316 µM
[16] = second compound 0.316 µM, first compound 1 µM
[17] = second compound 0.316 µM, first compound 3.16 µM
[18] = second compound 0.316 µM, first compound 10 µM
[19] = second compound 1 µM, first compound 0.0316 µM
[20] = second compound 1 µM, first compound 0.1 µM
[21] = second compound 1 µM, first compound 0.316 µM
[22] = second compound 1 µM, first compound 1 µM
[23] = second compound 1 µM, first compound 3.16 µM
[24] = second compound 1 µM, first compound 10 µM
[25] = second compound 3.16 µM, first compound 0.0316 µM
[26] = second compound 3.16 µM, first compound 0.1 µM
[27] = second compound 3.16 µM, first compound 0.316 µM
[28] = second compound 3.16 µM, first compound 1 µM
[29] = second compound 3.16 µM, first compound 3.16 µM
[30] = second compound 3.16 µM, first compound 10 µM
[31] = second compound 10 µM, first compound 0.0316 µM
[32] = second compound 10 µM, first compound 0.1 µM
[33] = second compound 10 µM, first compound 0.316 µM
[34] = second compound 10 µM, first compound 1 µM
[35] = second compound 10 µM, first compound 3.16 µM
[36] = second compound 10 µM, first compound 10 µM
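Further: spheroids exposed to compounds for seven days before readout.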

C=CC(=O)N1CCN(c2nc(=O)n(-c3c(C)ccnc3C(C)C)c3nc(-c4c(O)cccc4F)c(F)cc23)C(C)C1 (stereo unspecified) + COC1C(OC(N)=O)C(O)C(Oc2ccc3c(O)c(NC(=O)c4ccc(O)c(CC=C(C)C)c4)c(=O)oc3c2C)OC1(C)C was tested, and the IC50 (second compound 0.0316 µM) was > 10 µM, the IC50 (second compound 0.1 µM) was > 10 µM and the IC50 (second compound 0.316 µM) was > 10 µM. The IC50 (second compound 1 µM) was > 10 µM, the IC50 (second compound 3.16 µM) was > 10 µM and the IC50 (second compound 10 µM) was > 10 µM. The viability, T/C [1] was 110%, the viability, T/C [2] was 106% and the viability, T/C [3] was 106%. It also gave a viability, T/C [4] of 111%, a viability, T/C [5] of 123% and a viability, T/C [6] of 120%. The viability, T/C [7] was 95%, the viability, T/C [8] was 111% and the viability, T/C [9] was 108%. The viability, T/C [10] was 123%, the viability, T/C [11] was 123% and the viability, T/C [12] was 116%. For the same compound, the viability, T/C [13] was 111%, the viability, T/C [14] was 123% and the viability, T/C [15] was 111%. The viability, T/C [16] was 114%, the viability, T/C [17] was 128% and the viability, T/C [18] was 114%. For the same compound, the viability, T/C [19] was 119%, the viability, T/C [20] was 120% and the viability, T/C [21] was 114%. The viability, T/C [22] was 119%, the viability, T/C [23] was 121% and the viability, T/C [24] was 129%. For the same compound, the viability, T/C [25] was 116%, the viability, T/C [26] was 108% and the viability, T/C [27] was 108%. The viability, T/C [28] was 113%, the viability, T/C [29] was 121% and the viability, T/C [30] was 128%. For the same compound, the viability, T/C [31] was 109%, the viability, T/C [32] was 111% and the viability, T/C [33] was 106%. For the same compound, the viability, T/C [34] was 103%, the viability, T/C [35] was 122% and the viability, T/C [36] was 111%.

For CNCc1ccc(-c2[nH]c3cc(F)cc4c3c2CCNC4=O)cc1 + Nc1ccc(C#CCN(C(=O)Cc2ncc(C(F)(F)F)cc2C(F)(F)F)c2ccc(F)cc2)nn1, the IC50 (second compound 0.0316 µM) was > 10 µM, the IC50 (second compound 0.1 µM) was > 10 µM and the IC50 (second compound 0.316 µM) was > 10 µM. The IC50 (second compound 1 µM) was > 10 µM, the IC50 (second compound 3.16 µM) was > 10 µM and the IC50 (second compound 10 µM) was > 10 µM. The viability, T/C [1] was 94.5%, the viability, T/C [2] was 131% and the viability, T/C [3] was 102%. It also gave a viability, T/C [4] of 102%, a viability, T/C [5] of 106% and a viability, T/C [6] of 116%. It also gave a viability, T/C [7] of 97.8%, a viability, T/C [8] of 154% and a viability, T/C [9] of 112%. It also gave a viability, T/C [10] of 86%, a viability, T/C [11] of 99.2% and a viability, T/C [12] of 115%. For the same compound, the viability, T/C [13] was 100%, the viability, T/C [14] was 121% and the viability, T/C [15] was 108%. The viability, T/C [16] was 91.4%, the viability, T/C [17] was 100% and the viability, T/C [18] was 119%. It also gave a viability, T/C [19] of 90.9%, a viability, T/C [20] of 115% and a viability, T/C [21] of 91.4%. For the same compound, the viability, T/C [22] was 104%, the viability, T/C [23] was 118% and the viability, T/C [24] was 112%. It also gave a viability, T/C [25] of 94.9%, a viability, T/C [26] of 119% and a viability, T/C [27] of 101%. It also gave a viability, T/C [28] of 97.3%, a viability, T/C [29] of 101% and a viability, T/C [30] of 104%. The viability, T/C [31] was 98.3%, the viability, T/C [32] was 102% and the viability, T/C [33] was 107%. For the same compound, the viability, T/C [34] was 100%, the viability, T/C [35] was 110% and the viability, T/C [36] was 97.8%.

O=C(Nc1ccc(O)c(NS(=O)(=O)c2ccc(F)cc2)c1)c1ccc(-c2ccccc2)cc1 + Cc1cccc(N(C)C(=O)C2C(O)CCN2c2nc(C)cc(C(F)(F)F)c2C#N)c1 was tested, and the IC50 (second compound 0.0316 µM) was > 10 µM, the IC50 (second compound 0.1 µM) was > 10 µM and the IC50 (second compound 0.316 µM) was > 10 µM. For the same compound, the IC50 (second compound 1 µM) was > 10 µM, the IC50 (second compound 3.16 µM) was > 10 µM and the IC50 (second compound 10 µM) was 7.89 µM. It also gave a viability, T/C [1] of 113%, a viability, T/C [2] of 107% and a viability, T/C [3] of 95%. It also gave a viability, T/C [4] of 85.3%, a viability, T/C [5] of 106% and a viability, T/C [6] of 66.2%. The viability, T/C [7] was 110%, the viability, T/C [8] was 122% and the viability, T/C [9] was 98.5%. It also gave a viability, T/C [10] of 92.8%, a viability, T/C [11] of 109% and a viability, T/C [12] of 58.4%. It also gave a viability, T/C [13] of 99%, a viability, T/C [14] of 104% and a viability, T/C [15] of 108%. For the same compound, the viability, T/C [16] was 111%, the viability, T/C [17] was 128% and the viability, T/C [18] was 60.8%. For the same compound, the viability, T/C [19] was 97.5%, the viability, T/C [20] was 123% and the viability, T/C [21] was 91.6%. The viability, T/C [22] was 105%, the viability, T/C [23] was 115% and the viability, T/C [24] was 59.7%. It also gave a viability, T/C [25] of 88.6%, a viability, T/C [26] of 124% and a viability, T/C [27] of 125%. It also gave a viability, T/C [28] of 105%, a viability, T/C [29] of 120% and a viability, T/C [30] of 52.7%. It also gave a viability, T/C [31] of 125%, a viability, T/C [32] of 110% and a viability, T/C [33] of 125%. The viability, T/C [34] was 106%, the viability, T/C [35] was 111% and the viability, T/C [36] was 34.1%.
